Results as given in BindingDB's records for doi:10.1021/jm00092a001 (Wyeth-Ayerst Research, 1992).

How the values were obtained:
[1] = target: Polyunsaturated fatty acid 5-lipoxygenase (Mus musculus) (UniProt P48999); assay: The compound was tested for inhibitory activity against 5-lipoxygenase in mouse
[2] = The compound was tested for inhibitory activity against 5-Lipoxygenase in guinea pig polymorphonuclear leukocytes

Sequence of Polyunsaturated fatty acid 5-lipoxygenase (Mus musculus) (P48999 whole entry, looked up): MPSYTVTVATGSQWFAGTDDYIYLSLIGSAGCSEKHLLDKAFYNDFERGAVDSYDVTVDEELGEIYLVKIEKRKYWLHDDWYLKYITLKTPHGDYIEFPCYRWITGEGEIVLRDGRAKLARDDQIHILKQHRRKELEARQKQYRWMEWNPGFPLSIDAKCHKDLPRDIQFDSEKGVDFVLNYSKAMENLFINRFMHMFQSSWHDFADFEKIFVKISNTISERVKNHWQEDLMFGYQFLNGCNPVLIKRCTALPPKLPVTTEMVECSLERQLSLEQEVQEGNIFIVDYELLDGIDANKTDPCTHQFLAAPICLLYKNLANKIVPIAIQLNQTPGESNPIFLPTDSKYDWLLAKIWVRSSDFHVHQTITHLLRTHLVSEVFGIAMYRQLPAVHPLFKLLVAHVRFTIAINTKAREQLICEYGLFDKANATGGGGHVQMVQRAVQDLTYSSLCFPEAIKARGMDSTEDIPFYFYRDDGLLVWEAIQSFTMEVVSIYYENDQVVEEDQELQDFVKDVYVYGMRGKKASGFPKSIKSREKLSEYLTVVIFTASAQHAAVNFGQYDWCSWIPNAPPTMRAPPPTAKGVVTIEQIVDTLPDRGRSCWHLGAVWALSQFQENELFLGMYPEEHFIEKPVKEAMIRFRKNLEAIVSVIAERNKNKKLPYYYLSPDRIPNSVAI

Structure (SMILES)	IC50 [1] [nM]	IC50 [2] [nM]
Cc1nc(NCCCCCCc2ccccc2)nc(C)c1O	300	–
Cc1ccc(C)n1-c1ccc(/C=C/CC(=O)N(C)O)cc1	–	600
